# Experimental data reported in patent US6426093B1, “Synergistic biocidal activity if ternary complexes of negatively-charged biocides (component A), transition metal ions (component B), and neutral chelators (component C)” (Yissum Research Development Company of the Hebrew …, priority 1998, dated 2002).
# What was measured:
# [1] = test system: E. coli; experiment: E. coli inactivation, survival by colony-forming ability; assay type: cell-based
# Description: A sample of bacteria from the stock solution was diluted 100-fold in “reaction buffer” to a final concentration of 0.6 OD600 (4.8×10^6 cells/ml). Various agents were added to the bacteria following 15 minutes of preincubation at 37° C. Aliquots were removed at indicated time points into “termination buffer” to stop the reaction, and diluted by a factor of 50 to 10^6. Samples from each dilution were then plated on LB agar and grown overnight at 37° C. Each sample was plated at least five times. The colonies formed were then counted. Survival curves were evaluated from colony counts. Each experiment was repeated at least three times, and the mean values and standard error of triplicates were calculated.
# In the experiments shown in FIG. 3, all the incubation mixtures contained glucose (0.5% w/v) and MgSO4 (1 mM) in HEPES buffer (10 mM, pH=7.4), and bacteria (4.8×10^6 cells/ml). The cells were exposed to the combination of PCP (0.5 mM) and Fe(OP)3 (5 μM)—designated open triangles; or with the addition of DMSO (5%)—designated closed triangles; or with SOD (50 U/ml)—designated open circles. The results presented in Table 1, which were obtained using the experimental conditions and methods described above in this example, show the effect of different concentrations of PCP and copper complex and their combinations on the inactivation of E. coli.
# [2] = test system: Bone marrow-derived mast cells (MC-9 line); experiment: Killing of mast cells, survival by trypan blue method; assay type: cell-based, mice; conditions: 30 minutes
# Description: Bone marrow-derived mast cells (MC-9 line) were obtained from the femora of mice (line C57BL/6). The cells were cultured at 37° C. in humidified atmosphere containing 5% of CO2 in RPMI-1640, supplemented with 10% fetal calf serum, 2 mM L-glutamine, 100 U/ml penicillin, 100 μg/ml streptomycin, and 50 μM β-2-mercaptoethanol. Mast cells were grown (14 days), washed and resuspended in reaction medium (only RPMI-1640) and treated for 30 minutes as indicated above. The survival was determined by the trypan blue method.
compound,measurement,setting,value
"Oc1c(Cl)c(Cl)c(Cl)c(Cl)c1Cl [PCP, Pentachlorophenol]",Survival (%),[1]; PCP 0.4 mM,95.6%
same,Survival (%),[2]; PCP 0.5 mM,90.5%
"[Cu+2].c1cnc2c(c1)ccc1cccnc12.c1cnc2c(c1)ccc1cccnc12.c1cnc2c(c1)ccc1cccnc12 [[Cu^II (OP)3]^2+complex, 1,10-phenanthroline-copper [Cu^II (OP)3]^2+complex]",activity relative to the analogous iron complex,"[1]; in combination with PCP, bacterial inactivation",100 times
[Cu+2].c1cnc2c(c1)ccc1cccnc12.c1cnc2c(c1)ccc1cccnc12 [Cu^II (OP)2],Survival (%),[1]; Cu^II (OP)2 1 μM,99.5%
[Fe+2].c1cnc2c(c1)ccc1cccnc12.c1cnc2c(c1)ccc1cccnc12.c1cnc2c(c1)ccc1cccnc12 [Fe^II (OP)3],Survival (%),[2]; Fe^II (OP)3 100 (unit not given),95.4%
